The text below walks through data of patent publication EP0804147B1, “DERMATO-COSMETOLOGIC COMPOSITION” (PIERRE FABRE DERMO-COSMETIQUE, priority 1994, dated 1995).

Assay [1] is described as follows: Water retention capacity of skin flaps (stratum corneum samples soaked in active solution, dried, rehydrated; desorbed water quantified by GC-MS). The conditions noted are these: 90% d'humidité relative. An excerpt:
Des échantillons de stratum corneum sont immergés pendant 24 heures dans une solution de l'actif à analyser. Ils sont ensuite séchés pendant 24 heures dans un dessicateur sur silicagel puis réhydratés pendant 48 heures dans une enceinte à 90% d'humidité relative.
Ces échantillons sont analysés après l'étape de séchage et après l'étape de réhydratation. La technique utilisée est la chromatographie en phase gazeuse couplée à la spectrométrie de masse.
Les échantillons de peau pesés sont placés dans un four chauffé à 100°C, la vapeur d'eau désorbée est entrainée par un gaz de balayage sec vers le chromatographe où elle sera détectée.
Un spectre est obtenu en sortie de l'appareil. L'eau désorbée est quantifiée par la mesure de l'aire du pic. Le spectromètre de masse couplé à la CPG permet de s'assurer que le composé désorbé et quantifié est bien de l'eau.
Cette technique allie donc une analyse qualitative à une analyse quantitative. Les résultats sont donnés en pourcentage d'eau retenue et permettent donc d'évaluer le pouvoir hygroscopique des produits.
Les résultats sont présentés sur la figure 1.

For assay [2] the following is noted: for effet hydratant: topical on forearm, 0-6 h. The text has this:
La spectroscopie infrarouge in vivo est une technique non invasive, rapide et de grande sensibilité. Les molécules absorbent toutes différemment le rayonnement infrarouge. C'est en analysant leur spectre d'absorption que l'on peut retrouver la structure de la molécule.
En fonction de l'application de divers traitements, des liaisons entre l'eau apportée et la peau se créent et entraînent des modifications de certaines bandes d'absorption.
Ainsi seront analysés sur le spectre les pics suivants : • le pic d'absorption dû à l'élongation de la liaison OH de l'eau à 2100 cm-1. Les variations d'intensité de ce pic ne sont pas visibles à l'oeil nu mais elles sont significatives et donc enregistrées. • le pic d'absorption dû à l'élongation des liaisons amide I à 1640 cm-1. L'élongation de cette liaison se trouve modifiée lorsque des liaisons hydrogènes se créent par apport d'eau. • le pic d'absorption dû à l'élongation des liaisons amide II à 1540 cm-1. Ce pic n'est influencé par la présence d'eau que de façon négligeable; il est donc utilisé pour pondérer les deux pics précédents.
Les préparations cosmétiques à tester sont appliquées sur une zone délimitée de l'avant-bras. Une zone non traitée est conservée comme témoin.
Pour chaque spectre obtenu sont mesurés les rapports suivants : (amideI)/(amideII)appelé facteur d'hydratation (ou MF); (eau)/(amideII) [formula]
Ces rapports sont calculés aux temps 0, 1, 2, ..., 6 heures et les courbes suivantes sont tracées : MF témoin(t) - MF bras traité(t) = f(t) avec t, représentant le temps en heures.; (eau)/(amideII)témoin(t) -(eau)/(amideII)bras traité(t) = f(t) [formula]
L'allure de ces courbes est ensuite comparée. En effet, le pic des amides I pourrait être directement influencé par le produit appliqué alors que le pic à 2100 cm-1 n'est influencé que par l'eau.
Si les deux courbes obtenues évoluent dans le même sens, on peut considérer que la variation enregistrée rend bien compte de la fixation de l'eau sur la peau. Dans le cas contraire, il faut émettre des réserves sur les conclusions à apporter.
On teste par cette technique des crèmes contenant 5% et 13% de glycolate de guanidine, de formules suivantes (les pourcentages sont exprimés en p/p) :
Les effets sont comparés avec ceux de compositions contenant : • 15% glycérol • 5% glycérol • 13% lactate d'ammonium • 5% lactate d'ammonium.

The subject of assay [3] is Corynébactéries. The note with it: bacteria involved in body odour (armpits).
In assay [4] the test system is contaminations microbiennes. The conditions noted are these: cream containing 13%, no other preservative.
For assay [5] the following is noted: compared with lactate d'ammonium.

Read-outs that look alike come from different tables or passages of the source. Some results are limits rather than exact numbers.

Turning to `OCC(O)CO` [glycérol], the eau retenue in assay [1] (skin treated with 15% solution) worked out at 125%.

`CC(O)C(=O)O` (stereo not shown) [lactate d'ammonium] came in with an eau retenue in assay [1] (skin treated with 13% solution) of 135%.

Consider glycolate de guanidine, for which the effet hydratant entry was “beaucoup plus hydratante que celle contenant 5% de glycérol” in assay [2] (cream containing 5% (formula B), figure 3) and “beaucoup plus hydratante que le placebo et que la crème contenant 13% de lactate d'ammonium” in assay [2] (cream containing 13% (formula A), figure 2). Moreover, the “durée de la différence d'hydratation” value in assay [2] (cream containing 5% vs 5% glycérol cream) is reported as over 6 heures; in assay [2] (cream containing 13% vs placebo and 13% lactate d'ammonium cream) it was over 6 heures. The “activité bactéricide” value in assay [3] is “actif sur des bactéries impliquées dans la formation d'odeurs corporelles”. Besides, the “protection contre les contaminations microbiennes (conservateur)” value in assay [4] is recorded as “s'auto-protège contre les contaminations microbiennes”. This molecule showed an eau retenue in assay [1] (skin treated with 13% solution) of 300%. In addition, the “propriétés kératorégulatrices” value in assay [5] was “supérieures à celles du lactate d'ammonium”.
